Data published in patent US20200399329A1, “ANTIMICROBIAL PEPTIDES” (priority 2015, published 2020).
Entries after “also recorded” stand apart in the source; their conditions may differ. Where a SMILES comes first, the peptide text is derived from it.

Tests used:
[1] = tested on: GFPuv E. coli; test: GFP leakage from lysed GFPuv E. coli; assay type: cell-based; settings: 50 μM for 30 minutes
Description: In order to determine and evaluate the Mechanism of Action (MOA) by which the peptides achieve the remarkable antimicrobial effect they exert, the following experiments were conducted: GFPuv E. coli bacteria are a strain that upon induction expresses green fluorescent protein (GFP). The GFP fluorescence can be detected at 395/509 nm, while live bacteria can be detected via absorbance at 600 nm (OD600).
GFPuv E. coli bacteria ubiquitously express GFP in their cytoplasm upon induction and the fluorescent protein can be detected and visualized. […]
In another experiment, bacteria were grown and induced to express GFP. […] The supernatant (sup) from the two experiment groups CTRL and OMN6, was separated from the pellet and analyzed for the level of fluorescence units (FU) (see FIG. 4B). […] Fluorescence was detected only inside the bacteria which were concentrated in the pellet at the bottom of the tube. […] Both supernatants were probed for the presence of bacteria via absorbance at 600 nm and both supernatants were completely void of bacteria cells (data not shown). […] Thus, in the CTRL group, where the bacteria are intact, no fluorescence is detected in the sup while in the sup from the group treated with OMN6, the GFP that leaked out of the lysed cells is detected.

[2] = tested on: E. coli CR BAA-2452; assay type: cell-based, Escherichia coli; settings: OMN6 12.5 μM, FIG. 6D
Description: In order to determine the MIC values of the peptides, growth and inhibition of various bacteria were monitored after treatment with the peptides of the invention (Table 6).
E. coli bacteria were cultured with or without OMN6 in increasing concentrations of 0.8-200 μM and with or without Fetal Bovine Serum 10% for 17-20 hours. The growth of the bacteria was continuously monitored via spectrophotometry at 600 nm. As bacterial growth progresses, OD600 nm values rise, and where the growth is inhibited OD600 nm values remain constant.
E. coli NDM1 is a Carbapenem resistant strain of bacteria. The experimental system described above was used to determine the antimicrobial effect of OMN6 on this bacteria compared to the antibiotic drug Imipenem (IPM), a member of the Carbapenem family of antibiotics. The MIC value for IPM on sensitive E. coli is 4 μg/ml, in a MIC above 8 μg/ml the bacteria is considered resistant.
The experimental system and parameters described here were used to determine the MIC values of OMN2, OMN6, OMN7 and OMN11 on various bacteria strains (Table 7 and Table 8).

[3] = Preliminary topical safety in mice; assay type: in vivo; settings: topical single dose 0.5-4 mg/kg
Description: The antimicrobial peptide OMN6 was administered to mice in order to evaluate and quantify whether toxic effects are present. OMN6 peptide (C195H332N56O49S3) was administered topically according to concentrations and groups detailed in Table 9.
Mice approved for this experiment: Outbred Hsd:ICR (CD-1®)—weight 18-20 g. Saline solution (0.9% NaCl) as sham treatment or OMN6 dissolved in saline were administered directly onto the skin of mice after the hair was shaved. A total volume of 16 μl was administered to each animal.
In this experiment, the peptide OMN6 of the invention was administered in a single dose, at four different concentrations (mg/kg). Mortality of mice in all experiment groups was monitored in comparison to a Sham (CTRL) group. Food and water consumption, post treatment, was monitored by individual weight measurements once every two days. At the end of the experiment, blood was taken from all animals and 200 μl of blood was separated and plasma was analyzed for erythrocyte hemolysis. • Experimental Map: • 1. Mice (six per group) were given a single-dose administration on day 1, according to group specification (Table 9). Food and water consumption (weight analysis) along with mortality of mice in all groups were monitored for four days post treatment. At the end of the five day trial, the animals were sacrificed. • 2. Free Hgb (hemoglobin) assay was performed on day 5, on all samples from all groups, for erythrocyte hemolysis analysis. • 3. Water/food availability, temperature and other conditions remained unchanged between the groups for the entire five day trial. • 4. Erythrocyte hemolysis analysis was performed via hemoglobin assay kit (Sigma-Aldrich, 3 Plaut St. Rehovot, Israel).

CC[C@H](C)[C@H](NC(=O)CNC(=O)[C@H](CC(=O)O)NC(=O)[C@H](CCCNC(=N)N)NC(=O)[C@@H](NC(=O)[C@H](CC(N)=O)NC(=O)[C@H](CCC(N)=O)NC(=O)CNC(=O)[C@@H](NC(=O)[C@H](CCCCN)NC(=O)[C@H](CCC(=O)O)NC(=O)[C@@H](NC(=O)[C@H](CCCCN)NC(=O)[C@H](CCCCN)NC(=O)[C@H](Cc1ccccc1)NC(=O)[C@H](CC(C)C)NC(=O)[C@H](CCCCN)NC(=O)[C@H](Cc1c[nH]c2ccccc12)NC(=O)[C@H](CCCCN)NC(=O)[C@H](CS)NC(=O)[C@@H](N)CCSC)[C@@H](C)CC)C(C)C)[C@@H](C)CC)C(=O)N[C@H](C(=O)N[C@@H](CCCCN)C(=O)N[C@@H](C)C(=O)NCC(=O)N1CCC[C@H]1C(=O)N[C@@H](C)C(=O)N[C@H](C(=O)N[C@@H](C)C(=O)N[C@H](C(=O)N[C@H](C(=O)NCC(=O)N[C@@H](CCC(N)=O)C(=O)N[C@@H](C)C(=O)N[C@H](C(=O)N[C@@H](CCC(N)=O)C(=O)N[C@H](C(=O)N[C@@H](C)C(=O)N[C@@H](CCCCN)C(=O)N[C@@H](CS)C(N)=O)[C@@H](C)CC)[C@@H](C)O)C(C)C)C(C)C)C(C)C)[C@@H](C)CC [OMN6] (H-MCKWKLFKKIEKVGQNIRDGIIKAGPAVAVVGQATQIAKC-NH2; N-terminus and C-terminus assumed)
GFP leakage / lysis of bacteria [1]: massive leaking of GFP; also recorded: extensive lysis | Inhibition of growth of E. coli NDM1 [2]: completely inhibited bacterial growth | Clinical signs (diarrhea, bloody diarrhea, stand-on-end hair, apathy or restlessness) ([3]; 5-day experiment): not observed | Mortality ([3]; 5-day experiment): not observed | Toxic or otherwise adverse effects ([3]; 5-day experiment): does not exert any toxic or otherwise adverse effects | Weight-loss ([3]; 5-day experiment): not observed | Hemolysis of erythrocytes (Free Hgb assay) ([3]; day 5): No evidence of hemolysis
